# Assay results reported in patent US8906826B2, “Herbicidal compositions comprising 4-amino-3-chloro-5-fluoro-6-(4-chloro-2-fluoro-3-methoxyphenyl) pyridine-2-carboxylic acid or a derivative thereof and imidazolinones” (Dow AgroSciences, LLC, priority 2012, dated 2014).
# Assays:
# ECHCG = assay: Postemergence foliar-applied, direct seeded rice weeds (Example I); type: in vivo, Echinochloa crusgalli (L.) Beauv.
# Text: (§1) Seeds or nutlets of the desired test plant species were planted in a soil matrix prepared by mixing a loam or sandy loam soil (e.g., 28.6 percent silt, 18.8 percent clay, and 52.6 percent sand, with a pH of about 5.8 and an organic matter content of about 1.8 percent) and calcareous grit in an 80 to 20 ratio. The soil matrix was contained in plastic pots with a volume of 1 quart and a surface area of 83.6 cm^2. When required to ensure good germination and healthy plants, a fungicide treatment and/or other chemical or physical treatment was applied. The plants were grown for 8-22 days in a greenhouse with an approximate 14 h photoperiod which was maintained at about 29° C. during the day and 26° C. during the night. Nutrients (Peters Excel® 15-5-15 5-Ca 2-Mg and iron chelate) were applied in the irrigation solution as needed and water was added on a regular basis. Supplemental lighting was provided with overhead metal halide 1000-Watt lamps as necessary. The plants were employed for testing when they reached the first through fourth true leaf stage.
# (§2) Treatments consisted of the acid or esters of 4-amino-3-chloro-5-fluoro-6-(4-chloro-2-fluoro-3-methoxy-phenyl)pyridine-2-carboxylic acid (Compound A), each formulated as an SC (suspension concentrate), and various herbicidal components alone and in combination. Forms of compound A were applied on an acid equivalent basis.
# (§3) Other herbicidal components were applied on an acid equivalent basis and include acetolactate synthase (ALS)-inhibiting herbicides (imidazolinone chemical class) imazethapyr ammonium salt formulated as Newpath®, imazamox ammonium salt formulated as Beyond®, imazapic ammonium salt formulated as Plateau®, imazapyr isopropylamine salt formulated as Arsenal®, imazamethabenz-methyl (technical material) and imazaquin isopropylamine salt formulated as Scepter®/Imagine®.
# (§4) Treatment requirements were calculated based upon the rates being tested, the concentration of active ingredient or acid equivalent in the formulation, and a 12 mL application volume at a rate of 187 L/ha.
# (§5) For treatments comprised of formulated compounds, measured amounts of compounds were placed individually in 25 mL glass vials and diluted in a volume of 1.25% (v/v) Agri-Dex® crop oil concentrated to obtain 12× stock solutions. […] Application solutions were prepared by adding an appropriate amount of each stock solution (e.g., 1 mL) and diluted to the appropriate final concentrations with the addition of 10 mL of an aqueous mixture of 1.25% (v/v) crop oil concentrate so that the final spray solutions contained 1.25+/−0.05% (v/v) crop oil concentrate.
# (§6) For treatments comprised of technical compounds, weighed amounts can be placed individually in 25 mL glass vials and dissolved in a volume of 97:3 v/v acetone/DMSO to obtain 12× stock solutions. […] Application solutions can be prepared by adding an appropriate amount of each stock solution (e.g., 1 mL) and diluted to the appropriate final concentrations with the addition of 10 mL of an aqueous mixture of 1.5% (v/v) crop oil concentrate so that the final spray solutions contain 1.25% (v/v) crop oil concentrate. When technical materials are used, the concentrated stock solutions can be added to the spray solutions so that the final acetone and DMSO concentrations of the application solutions are 16.2% and 0.5%, respectively.
# (§7) For treatments comprised of formulated and technical compounds, weighed amounts of the technical materials were placed individually in 25 mL glass vials and dissolved in a volume of 97:3 v/v acetone/DMSO to obtain 12× stock solutions, and measured amounts of the formulated compounds were placed individually in 25 mL glass vials and diluted in a volume of 1.5% (v/v) crop oil concentrate or water to obtain 12× stock solutions. […]
# CYPES = assay: as above; type: in vivo, Cyperus esculentus L.
# Text: as §1, §2, §3, §4, §5, §6, §7
# CENMA = assay: Postemergence herbicidal activity in forage crops (Example IV); type: in vivo, Centaurea biebersteinii DC.; conditions: after approximately 21 days
# Description: (§8) Seeds or root cuttings of the desired test plant species were planted in Sun Gro MetroMix® 306 planting mixture, which typically has a pH of about 6.0 to about 6.8 and an organic matter content of about 30 percent, in plastic pots with a surface area of 126.6 square centimeters (cm^2). When required to ensure good germination and healthy plants, a fungicide treatment and/or other chemical or physical treatment was applied. The plants were grown for 14-60 days in a greenhouse with an approximate 14 hour photoperiod which was maintained at about 28° C. during the day and about 24° C. during the night. Nutrients and water were added on a regular basis and supplemental lighting was provided with overhead metal halide 1000-Watt lamps as necessary. The plants were employed for testing when they reached the BBCH13 to BBCH23 leaf stage.
# (§9) Treatments consisted of the benzyl ester of 4-amino-3-chloro-5-fluoro-6-(4-chloro-2-fluoro-3-methoxy-phenyl)pyridine-2-carboxylic acid (Compound A), formulated as a SC (suspension concentrate), and a second herbicide alone and in combination.
# (§10) A measured aliquot of Compound A was placed in a 25 milliliter (mL) glass vial and diluted in a volume of 1.25% (v/v) Agri-Dex® crop oil concentrate to obtain stock solutions. Compound requirements are based upon a 12 mL application volume at a rate of 187 liters per hectare (L/ha). Spray solutions of the second cereal herbicide and experimental compound mixtures were prepared by adding the stock solutions to the appropriate amount of dilution solution to form 12 mL spray solution with active ingredients in two- and three-way combinations. Formulated compounds were applied to the plant material with an overhead Mandel track sprayer equipped with an 8002E nozzle calibrated to deliver 187 L/ha over an application area of 0.503 square meters (m^2) at a spray height of 18 inches (46 cm) above average plant canopy. Control plants were sprayed in the same manner with the solvent blank.
# (§11) The treated plants and control plants were placed in a greenhouse as described above and watered by sub-irrigation to prevent wash-off of the test compounds. After approximately 21 days, the condition of the test plants, as compared with that of the control plants, was determined visually and scored on a scale of 0 to 100 percent where 0 corresponds to no injury and 100 corresponds to complete kill.
# (§12) Colby's equation was used to determine the herbicidal effects expected from the mixtures (Colby, S. R. 1967. Calculation of the synergistic and antagonistic response of herbicide combinations. Weeds 15:20-22.).
# (§13) The following equation was used to calculate the expected activity of mixtures containing two active ingredients, A and B: Expected=A+B−(A×B/100)
# SONAR = assay: as above; type: in vivo, Sonchus arvensis L.; conditions: after approximately 21 days
# Description: as §8, §9, §10, §11, §12, §13
# [1] = Compound A Benzyl Ester 4.4 gae/ha
# [2] = Compound A Benzyl Ester 8.8 gae/ha
# [3] = Compound A Benzyl Ester 17.5 gae/ha
compound,measurement,setting,value
"COCc1cnc(C2=NC(C)(C(C)C)C(=O)N2)c(C(=O)O)c1.N (racemic) [Imazamox ammonium, ammonium (±)-2-[4,5-dihydro-4-methyl-4-(1-methylethyl)-5-oxo-1H-imidazol-2-yl]-5-(methoxymethyl)-3-pyridinecarboxylate]",Visual Weed Control (%) - 25 DAA ECHCG Obs,ECHCG; Imazamox ammonium 5.6 gae/ha,15%
same,Visual Weed Control (%) - 25 DAA ECHCG Obs,ECHCG; Imazamox ammonium 11.2 gae/ha,20%
same,Visual Weed Control (%) - 25 DAA ECHCG Obs,ECHCG; Imazamox ammonium 22.4 gae/ha,60%
same,Visual Weed Control (%) - 25 DAA CYPES Obs,CYPES; Imazamox ammonium 5.6 gae/ha,0%
same,Visual Weed Control (%) - 25 DAA CYPES Obs,CYPES; Imazamox ammonium 11.2 gae/ha,0%
same,Visual Weed Control (%) - 25 DAA CYPES Obs,CYPES; Imazamox ammonium 22.4 gae/ha,20%
"Cc1cnc(C2=NC(C)(C(C)C)C(=O)N2)c(C(=O)O)c1.N (racemic) [Imazapic ammonium, ammonium (±)-2-[4,5-dihydro-4-methyl-4-(1-methylethyl)-5-oxo-1H-imidazol-2-yl]-5-methyl-3-pyridinecarboxylic acid]",Visual Weed Control (%) - 25 DAA ECHCG Obs,ECHCG; Imazapic ammonium 4.38 gae/ha,20%
same,Visual Weed Control (%) - 25 DAA ECHCG Obs,ECHCG; Imazapic ammonium 8.75 gae/ha,40%
same,CENMA Obs,CENMA; Imazapic ammonium 8.75 gae/ha,0%
same,CENMA Obs,CENMA; Imazapic ammonium 17.5 gae/ha,0%
same,SONAR Obs,SONAR; Imazapic ammonium 17.5 gae/ha,0%
"CCc1cnc(C2=NC(C)(C(C)C)C(=O)N2)c(C(=O)O)c1.N (racemic) [Imazethapyr ammonium, ammonium (±)-2-[4,5-dihydro-4-methyl-4-(1-methylethyl)-5-oxo-1H-imidazol-2-yl]-5-ethyl-3-pyridinecarboxylate]",Visual Weed Control (%) - 25 DAA CYPES Obs,CYPES; Imazethapyr ammonium 8.75 gae/ha,0%
"COc1c(Cl)ccc(-c2nc(C(=O)O)c(Cl)c(N)c2F)c1F [Compound A Acid, 4-amino-3-chloro-6-(4-chloro-2-fluoro-3-methoxyphenyl)-5-fluoropyridine-2-carboxylic acid]",Visual Weed Control (%) - 25 DAA ECHCG Obs,ECHCG; Compound A Acid 4.38 gae/ha,20%
same,Visual Weed Control (%) - 25 DAA ECHCG Obs,ECHCG; Compound A Acid 8.75 gae/ha,50%
same,Visual Weed Control (%) - 25 DAA CYPES Obs,CYPES; Compound A Acid 4.38 gae/ha,50%
"COc1c(Cl)ccc(-c2nc(C(=O)OCc3ccccc3)c(Cl)c(N)c2F)c1F [Compound A Benzyl Ester, benzyl ester of 4-amino-3-chloro-5-fluoro-6-(4-chloro-2-fluoro-3-methoxy-phenyl)pyridine-2-carboxylic acid]",CENMA Obs,CENMA; [1],70%
same,CENMA Obs,CENMA; [2],85%
same,CENMA Obs,CENMA; [3],95%
same,SONAR Obs,SONAR; [1],65%
same,SONAR Obs,SONAR; [2],100%
same,SONAR Obs,SONAR; [3],95%
same,Visual Weed Control (%) - 25 DAA CYPES Obs,CYPES; Compound A Benzyl Ester 4.38 gae/ha,70%
same,Visual Weed Control (%) - 25 DAA CYPES Obs,CYPES; Compound A Benzyl Ester 8.75 gae/ha,90%
same,Visual Weed Control (%) - 25 DAA CYPES Obs,CYPES; [3],85%
